Experimental data published in BindingDB's records for doi:10.1124/mol.63.6.1223 (Case Western Reserve University, 2003).
Values joined by “and” are separate entries in the source; they are usually repeats but may differ in a detail not shown here. Equal values may be shown once.

Columns and labels:
[1] = biological target: Sodium-dependent dopamine transporter (Rattus norvegicus, UniProt P23977)
[2] = biological target: 5-hydroxytryptamine receptor 2B (Homo sapiens, UniProt P41595)
[3] = biological target: Norepinephrine transporter (Rattus norvegicus, UniProt Q9JIA2)
[4] = biological target: Sodium-dependent serotonin transporter (Rattus norvegicus, UniProt P31652)
Chain of Sodium-dependent serotonin transporter (P31652 whole entry): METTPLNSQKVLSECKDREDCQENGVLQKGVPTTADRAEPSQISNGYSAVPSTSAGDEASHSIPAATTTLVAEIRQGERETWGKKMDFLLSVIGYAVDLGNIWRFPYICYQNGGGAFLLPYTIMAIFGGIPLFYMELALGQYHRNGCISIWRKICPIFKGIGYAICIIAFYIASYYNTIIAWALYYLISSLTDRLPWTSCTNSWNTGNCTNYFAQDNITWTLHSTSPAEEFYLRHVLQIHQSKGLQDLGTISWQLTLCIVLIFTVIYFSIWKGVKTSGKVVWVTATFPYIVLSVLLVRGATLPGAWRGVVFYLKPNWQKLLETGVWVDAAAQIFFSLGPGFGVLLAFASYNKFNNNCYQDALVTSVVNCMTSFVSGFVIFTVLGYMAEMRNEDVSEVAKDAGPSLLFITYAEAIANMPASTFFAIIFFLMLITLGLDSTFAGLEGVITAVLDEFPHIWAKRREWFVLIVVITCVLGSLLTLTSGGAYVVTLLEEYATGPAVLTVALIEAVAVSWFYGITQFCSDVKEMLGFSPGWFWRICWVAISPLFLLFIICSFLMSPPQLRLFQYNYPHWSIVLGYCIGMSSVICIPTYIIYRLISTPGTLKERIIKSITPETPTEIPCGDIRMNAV

[5] = biological target: 5-hydroxytryptamine receptor 1A (Homo sapiens, UniProt P08908)
[6] = biological target: D(1B) dopamine receptor (Homo sapiens, UniProt P21918)
[7] = biological target: Sodium-dependent dopamine transporter (Homo sapiens, UniProt Q01959)
[8] = biological target: Beta-1 adrenergic receptor (Rattus norvegicus, UniProt P18090)
[9] = biological target: Alpha-2A adrenergic receptor (Homo sapiens, UniProt P08913)
[10] = biological target: Metabotropic glutamate receptor 2 (Homo sapiens, UniProt Q14416)
[11] = biological target: Cannabinoid receptor 1 (Rattus norvegicus, UniProt P20272)
Chain of Cannabinoid receptor 1 (P20272 whole entry): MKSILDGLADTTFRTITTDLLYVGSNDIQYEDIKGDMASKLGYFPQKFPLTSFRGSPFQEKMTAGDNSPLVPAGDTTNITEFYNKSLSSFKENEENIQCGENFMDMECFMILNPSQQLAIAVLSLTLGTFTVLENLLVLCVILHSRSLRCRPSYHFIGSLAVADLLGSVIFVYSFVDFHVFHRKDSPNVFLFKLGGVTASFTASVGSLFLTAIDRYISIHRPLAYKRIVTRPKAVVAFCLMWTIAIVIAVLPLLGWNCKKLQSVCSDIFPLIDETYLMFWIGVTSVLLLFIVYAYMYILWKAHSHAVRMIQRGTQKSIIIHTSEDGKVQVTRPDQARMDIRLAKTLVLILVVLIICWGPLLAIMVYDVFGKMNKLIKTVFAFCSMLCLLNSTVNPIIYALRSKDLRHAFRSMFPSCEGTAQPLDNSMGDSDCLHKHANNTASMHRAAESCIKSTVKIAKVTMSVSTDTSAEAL

[12] = biological target: D(3) dopamine receptor (Homo sapiens, UniProt P35462)
[13] = biological target: Muscarinic acetylcholine receptor M2 (Homo sapiens, UniProt P08172)
[14] = biological target: 5-hydroxytryptamine receptor 1D (Homo sapiens, UniProt P28221)
[15] = biological target: Alpha-1A adrenergic receptor (Homo sapiens, UniProt P35348)
[16] = biological target: Beta-2 adrenergic receptor (Rattus norvegicus, UniProt P10608)
[17] = biological target: Prostaglandin E2 receptor EP3 subtype (Homo sapiens, UniProt P43115)
[18] = biological target: Glutamate receptor ionotropic, NMDA 1 (Rattus norvegicus, UniProt P35439)
[19] = biological target: Alpha-2C adrenergic receptor (Homo sapiens, UniProt P18825)
Chain of Alpha-2C adrenergic receptor (P18825 whole entry): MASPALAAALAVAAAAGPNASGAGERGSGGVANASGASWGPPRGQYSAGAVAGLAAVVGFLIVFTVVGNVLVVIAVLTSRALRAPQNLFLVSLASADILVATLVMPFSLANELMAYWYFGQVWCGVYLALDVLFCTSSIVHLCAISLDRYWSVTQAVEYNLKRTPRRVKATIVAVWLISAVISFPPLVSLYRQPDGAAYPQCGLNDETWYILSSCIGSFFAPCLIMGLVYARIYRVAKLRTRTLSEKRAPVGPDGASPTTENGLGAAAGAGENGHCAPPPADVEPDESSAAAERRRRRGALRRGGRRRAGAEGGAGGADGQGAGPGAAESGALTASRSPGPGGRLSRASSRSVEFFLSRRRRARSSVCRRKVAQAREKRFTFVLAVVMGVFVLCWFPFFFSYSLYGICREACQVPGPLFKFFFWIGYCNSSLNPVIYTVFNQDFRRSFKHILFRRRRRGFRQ

[20] = biological target: Neuronal acetylcholine receptor subunit alpha-3 (Homo sapiens, UniProt P32297)
[21] = biological target: Metabotropic glutamate receptor 1 (Rattus norvegicus, UniProt P23385)
Chain of Metabotropic glutamate receptor 1 (P23385 whole entry): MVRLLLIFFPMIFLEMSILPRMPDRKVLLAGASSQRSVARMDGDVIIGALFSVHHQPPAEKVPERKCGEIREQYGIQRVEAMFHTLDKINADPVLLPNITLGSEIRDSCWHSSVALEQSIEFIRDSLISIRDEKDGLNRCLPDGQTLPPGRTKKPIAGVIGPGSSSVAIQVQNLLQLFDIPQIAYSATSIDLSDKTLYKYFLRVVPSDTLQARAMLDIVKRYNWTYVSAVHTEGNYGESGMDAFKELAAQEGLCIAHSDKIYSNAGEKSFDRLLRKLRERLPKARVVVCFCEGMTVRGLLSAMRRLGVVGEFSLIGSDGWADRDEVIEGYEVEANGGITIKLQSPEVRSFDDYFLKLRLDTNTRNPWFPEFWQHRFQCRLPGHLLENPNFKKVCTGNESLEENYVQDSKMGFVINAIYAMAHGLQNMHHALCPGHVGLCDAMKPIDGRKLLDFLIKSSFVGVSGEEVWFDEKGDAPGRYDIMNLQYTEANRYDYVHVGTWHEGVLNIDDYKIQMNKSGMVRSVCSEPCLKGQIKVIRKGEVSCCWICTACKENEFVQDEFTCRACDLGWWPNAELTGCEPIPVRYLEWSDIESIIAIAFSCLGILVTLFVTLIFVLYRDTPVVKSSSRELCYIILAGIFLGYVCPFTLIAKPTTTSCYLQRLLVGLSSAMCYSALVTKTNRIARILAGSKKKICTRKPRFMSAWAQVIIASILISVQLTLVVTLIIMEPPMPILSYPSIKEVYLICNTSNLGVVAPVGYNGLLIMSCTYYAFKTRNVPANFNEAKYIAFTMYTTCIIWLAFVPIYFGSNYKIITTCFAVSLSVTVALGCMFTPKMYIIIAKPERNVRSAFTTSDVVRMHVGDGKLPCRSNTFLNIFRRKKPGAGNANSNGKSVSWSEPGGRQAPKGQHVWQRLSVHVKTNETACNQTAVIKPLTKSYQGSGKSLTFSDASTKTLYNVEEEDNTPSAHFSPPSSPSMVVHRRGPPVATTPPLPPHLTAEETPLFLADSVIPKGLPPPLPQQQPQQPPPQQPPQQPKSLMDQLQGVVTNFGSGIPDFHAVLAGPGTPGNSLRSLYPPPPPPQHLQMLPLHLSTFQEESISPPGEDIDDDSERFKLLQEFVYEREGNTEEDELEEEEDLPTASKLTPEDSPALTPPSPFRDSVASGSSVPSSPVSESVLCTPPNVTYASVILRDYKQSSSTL

[22] = biological target: Histamine H1 receptor (Homo sapiens, UniProt P35367)
[23] = biological target: Voltage-dependent L-type calcium channel subunit alpha-1C (Rattus norvegicus, UniProt P22002)
[24] = biological target: D(4) dopamine receptor (Rattus norvegicus, UniProt P30729)
[25] = biological target: 5-hydroxytryptamine receptor 7 (Homo sapiens, UniProt P34969)
[26] = biological target: Sodium-dependent noradrenaline transporter (Homo sapiens, UniProt P23975)
[27] = biological target: 5-hydroxytryptamine receptor 5A (Homo sapiens, UniProt P47898)
[28] = biological target: 5-hydroxytryptamine receptor 2C (Rattus norvegicus, UniProt P08909)
[29] = biological target: Prostaglandin E2 receptor EP4 subtype (Homo sapiens, UniProt P35408)
[30] = biological target: Metabotropic glutamate receptor 8 (Rattus norvegicus, UniProt P70579)
[31] = biological target: Muscarinic acetylcholine receptor M4 (Homo sapiens, UniProt P08173)
[32] = biological target: 5-hydroxytryptamine receptor 1B (Homo sapiens, UniProt P28222)
[33] = biological target: 5-hydroxytryptamine receptor 6 (Homo sapiens, UniProt P50406)
[34] = biological target: Acetylcholine receptor subunit alpha (Homo sapiens, UniProt P02708)
[35] = biological target: Muscarinic acetylcholine receptor M5 (Homo sapiens, UniProt P08912)
[36] = biological target: D(1A) dopamine receptor (Homo sapiens, UniProt P21728)
Chain of D(1A) dopamine receptor (P21728 whole entry): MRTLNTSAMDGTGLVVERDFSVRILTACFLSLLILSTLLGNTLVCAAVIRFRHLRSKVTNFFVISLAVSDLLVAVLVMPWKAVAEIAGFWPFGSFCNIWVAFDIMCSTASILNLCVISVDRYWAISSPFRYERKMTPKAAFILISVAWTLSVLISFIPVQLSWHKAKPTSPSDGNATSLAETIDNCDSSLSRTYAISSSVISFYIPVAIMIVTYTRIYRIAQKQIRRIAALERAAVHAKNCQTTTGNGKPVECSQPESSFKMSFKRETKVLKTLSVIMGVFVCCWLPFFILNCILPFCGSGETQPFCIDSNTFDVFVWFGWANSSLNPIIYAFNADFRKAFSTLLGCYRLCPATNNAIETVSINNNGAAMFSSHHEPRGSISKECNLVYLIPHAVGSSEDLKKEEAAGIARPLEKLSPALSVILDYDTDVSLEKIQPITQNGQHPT

[37] = biological target: Gamma-aminobutyric acid receptor subunit alpha-1 (Rattus norvegicus, UniProt P62813)
[38] = biological target: D(2) dopamine receptor (Homo sapiens, UniProt P14416)
[39] = biological target: Muscarinic acetylcholine receptor M1 (Homo sapiens, UniProt P11229)
Chain of Muscarinic acetylcholine receptor M1 (P11229 whole entry): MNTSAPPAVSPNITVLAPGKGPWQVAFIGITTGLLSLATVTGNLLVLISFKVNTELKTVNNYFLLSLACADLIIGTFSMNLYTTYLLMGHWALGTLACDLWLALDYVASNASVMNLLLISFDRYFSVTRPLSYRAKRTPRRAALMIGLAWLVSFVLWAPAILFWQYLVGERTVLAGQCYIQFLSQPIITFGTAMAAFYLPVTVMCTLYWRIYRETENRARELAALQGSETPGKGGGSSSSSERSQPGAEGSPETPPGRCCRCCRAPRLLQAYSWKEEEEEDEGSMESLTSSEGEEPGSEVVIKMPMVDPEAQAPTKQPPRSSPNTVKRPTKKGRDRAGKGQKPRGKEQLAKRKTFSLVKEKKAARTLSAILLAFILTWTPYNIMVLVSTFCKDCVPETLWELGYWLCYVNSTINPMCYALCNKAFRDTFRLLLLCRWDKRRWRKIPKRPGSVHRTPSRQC

[40] = biological target: Gamma-aminobutyric acid (GABA) B receptor 1 (Rattus norvegicus, UniProt Q6MFX8)
[41] = biological target: Metabotropic glutamate receptor 4 (Rattus norvegicus, UniProt P31423)

Chain of 5-hydroxytryptamine receptor 2B (P41595 whole entry): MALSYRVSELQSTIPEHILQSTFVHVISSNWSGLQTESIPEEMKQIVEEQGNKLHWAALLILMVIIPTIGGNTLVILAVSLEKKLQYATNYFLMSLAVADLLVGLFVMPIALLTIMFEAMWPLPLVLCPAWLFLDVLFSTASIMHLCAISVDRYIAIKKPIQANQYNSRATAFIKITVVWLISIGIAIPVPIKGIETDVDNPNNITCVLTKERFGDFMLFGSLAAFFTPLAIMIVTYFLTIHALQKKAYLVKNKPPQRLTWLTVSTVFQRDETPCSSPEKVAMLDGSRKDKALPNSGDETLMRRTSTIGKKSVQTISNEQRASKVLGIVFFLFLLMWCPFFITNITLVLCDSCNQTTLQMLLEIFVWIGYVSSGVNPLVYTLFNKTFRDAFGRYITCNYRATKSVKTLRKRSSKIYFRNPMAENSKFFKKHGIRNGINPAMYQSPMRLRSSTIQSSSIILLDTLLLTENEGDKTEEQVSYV
Chain of Sodium-dependent dopamine transporter (Rattus norvegicus, UniProt P23977) (P23977 whole entry): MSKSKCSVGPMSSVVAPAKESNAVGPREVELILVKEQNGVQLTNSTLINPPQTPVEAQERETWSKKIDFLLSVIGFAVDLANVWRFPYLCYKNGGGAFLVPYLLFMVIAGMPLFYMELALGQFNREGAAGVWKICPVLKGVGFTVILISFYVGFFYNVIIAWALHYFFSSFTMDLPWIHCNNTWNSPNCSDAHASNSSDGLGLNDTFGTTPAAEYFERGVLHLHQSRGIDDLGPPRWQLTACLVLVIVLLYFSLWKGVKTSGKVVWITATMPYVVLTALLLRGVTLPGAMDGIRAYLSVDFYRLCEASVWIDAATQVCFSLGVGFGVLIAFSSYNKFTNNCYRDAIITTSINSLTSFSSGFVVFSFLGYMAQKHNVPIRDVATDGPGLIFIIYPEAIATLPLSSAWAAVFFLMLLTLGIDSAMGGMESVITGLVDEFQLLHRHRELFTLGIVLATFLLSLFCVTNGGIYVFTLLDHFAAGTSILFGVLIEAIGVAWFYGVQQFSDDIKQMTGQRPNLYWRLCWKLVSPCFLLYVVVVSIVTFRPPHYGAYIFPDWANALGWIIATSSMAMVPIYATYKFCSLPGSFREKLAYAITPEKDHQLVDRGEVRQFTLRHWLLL

With `CC(N)Cc1ccc2c(c1)OCO2` (stereo unspecified) the Ki [1] was 190 nM, the Ki [2] was 100 nM and 190 nM and the Ki [3] was 108 nM. For the same compound, the Ki [4] was 160 nM.

For `CCCN1CC(CSC)CC2c3cccc4[nH]cc(c34)CC21` (stereo unspecified) [CAS_66104-22-1], the Ki [2] was 14 nM and 53 nM.

For `CN[C@@H](C)Cc1ccc2c(c1)OCO2` [DL-(3,4-Methylenedioxy)methamphetamine], the Ki [5] was over 10 µM, the Ki [6] was over 10 µM and the Ki [7] was over 10 µM. It also gave a Ki [8] of over 10 µM, a Ki [9] of 2530 nM and a Ki [10] of over 10 µM. It also gave a Ki [11] of over 10 µM, a Ki [1] of 278 nM and a Ki [12] of over 10 µM. For the same compound, the Ki [13] was over 10 µM, the Ki [2] was 500 nM and 2000 nM and the Ki [14] was over 10 µM. It also gave a Ki [15] of over 10 µM, a Ki [16] of over 10 µM and a Ki [17] of over 10 µM. It also gave a Ki [18] of over 10 µM, a Ki [19] of 1120 nM and a Ki [20] of over 10 µM. It also gave a Ki [21] of over 10 µM, a Ki [22] of 2140 nM and a Ki [23] of 1200 nM. For the same compound, the Ki [24] was over 10 µM, the Ki [25] was over 10 µM and the Ki [26] was over 10 µM. It also gave a Ki [27] of over 10 µM, a Ki [3] of 110 nM and a Ki [28] of over 10 µM. For the same compound, the Ki [29] was over 10 µM, the Ki [30] was over 10 µM and the Ki [31] was 8.25 µM. It also gave a Ki [32] of over 10 µM, a Ki [33] of over 10 µM and a Ki [34] of over 10 µM. The Ki [35] was 6.34 µM, the Ki [4] was 72 nM and the Ki [36] was over 10 µM. For the same compound, the Ki [37] was over 10 µM, the Ki [38] was over 10 µM and the Ki [39] was over 10 µM. It also gave a Ki [40] of over 10 µM and a Ki [41] of over 10 µM.

In the case of `CN[C@@H](C)Cc1ccc2c(c1)OCO2` [MDMA, R(-)], the Ki [1] is reported as 3700 nM, the Ki [2] is reported as 900 nM and the Ki [3] is reported as 560 nM. It also gave a Ki [4] of 340 nM.

`CN1CC(C(=O)NC2(C)OC3(O)C4CCCN4C(=O)C(Cc4ccccc4)N3C2=O)CC2c3cccc4[nH]cc(c34)CC21` (stereo unspecified) [NSC_3066] was tested, and the Ki [2] was 15.2 nM and 30 nM.

For `CCNC(C)Cc1cccc(C(F)(F)F)c1` (stereo unspecified) [NSC_3337], the Ki [1] was over 10000 nM.

For `CCC(CO)NC(=O)C1C=C2c3cccc4[nH]cc(c34)CC2N(C)C1` (stereo unspecified) [NSC_8226], the Ki [2] was 0.8 nM.

`CC(N)Cc1cccc(C(F)(F)F)c1` (stereo unspecified) [NSC_15897] was tested, and the Ki [1] was 1900 nM, the Ki [2] was 15 nM and 60 nM and the Ki [3] was 170 nM. The Ki [4] was 104 nM.

For `CN[C@H](C)Cc1ccc2c(c1)OCO2` [NSC_126235], the Ki [1] was 142 nM, the Ki [2] was 6000 nM and the Ki [3] was 136 nM. The Ki [4] was 74 nM.

`C[C@@H](N)Cc1ccc2c(c1)OCO2` [NSC_3046161] gave a Ki [1] of 900 nM, a Ki [2] of 150 nM and a Ki [3] of 290 nM. For the same compound, the Ki [4] was 310 nM.

With `C[C@H](N)Cc1ccc2c(c1)OCO2` [NSC_3050061] the Ki [1] was 98 nM, the Ki [2] was 100 nM and the Ki [3] was 50 nM. For the same compound, the Ki [4] was 100 nM.

For `NCCc1c[nH]c2ccc(O)cc12` [[3H]-5-HT], the Ki [1] was over 10000 nM and the Ki [3] was over 10000 nM.
